{"source": "paper PMC7559897", "about": "“Designed Antimicrobial Peptides Against Trauma-Related Cutaneous Invasive Fungal Wound Infections” (Journal of Fungi, 2020)", "key": {"[1]": {"system": "Absidia corymbifera NRRL 6251", "assay_type": "cell-based", "details": "NRRL 6251, 24 h", "procedure": "(§1) Assays were performed by Trideum Biosciences (Frederick, MD, USA). Isolates were thawed from −80 °C storage and sub-cultured on trypticase soy agar plates at 37 °C prior to experimentation. A single colony was aseptically picked from the agar plate and released in 30 mL trypticase soy broth and incubated overnight at 37 °C incubator. Following which the bacterial culture was diluted to approximately 10^6 colony forming units (CFU)/mL using 2X cation adjusted Mueller–Hinton broth and added to the dAMP solutions (0, 2, 4, 8, 16, 32, 64, and 128 μg/mL) which had been formulated in water at 256 μg/mL and then serially diluted in media on 96-well pates. For fungal evaluation, potato dextrose broth and potato dextrose agar plates were used. The treated cultures were then incubated for 24 h at 37 °C and pathogen growth was measured by absorbance at 600 nm. Four replicas were included for each dAMP concentration. Each MIC was assigned to the lowest test agent concentration resulting in at least three out of four wells showing no growth based on an optical density (OD) reading of <0.1."}, "[2]": {"system": "Aspergillus flavus MYA-1004", "assay_type": "cell-based", "details": "24 h", "procedure": "as §1"}, "[3]": {"system": "Aspergillus flavus MYA-3651", "assay_type": "cell-based", "details": "24 h", "procedure": "as §1"}, "[4]": {"system": "Aspergillus fumigatus 9648", "assay_type": "cell-based", "details": "9648, 24 h", "procedure": "as §1"}, "[5]": {"system": "Aspergillus fumigatus 9651", "assay_type": "cell-based", "details": "9651, 24 h", "procedure": "as §1"}, "[6]": {"system": "Candida albicans Y-326", "assay_type": "cell-based", "details": "Y-326, 24 h", "procedure": "as §1"}, "[7]": {"system": "Candida albicans Y-6359", "assay_type": "cell-based", "details": "Y-6359, 24 h", "procedure": "as §1"}, "[8]": {"system": "Candida krusei Y-27803", "assay_type": "cell-based", "details": "Y-27803, 24 h", "procedure": "as §1"}, "[9]": {"system": "Candida krusei Y-27825", "assay_type": "cell-based", "details": "Y-27825, 24 h", "procedure": "as §1"}, "[10]": {"system": "Candida parapsilosis Y-1761", "assay_type": "cell-based", "details": "Y-1761, 24 h", "procedure": "as §1"}, "[11]": {"system": "Candida parapsilosis Y-1763", "assay_type": "cell-based", "details": "Y-1763, 24 h", "procedure": "as §1"}, "[12]": {"system": "E. cloacae 6053", "assay_type": "cell-based", "details": "6053, 24 h", "procedure": "as §1"}, "[13]": {"system": "E. cloacae 6054", "assay_type": "cell-based", "details": "6054, 24 h", "procedure": "as §1"}, "[14]": {"system": "Fusarium solani NRRL 28548", "assay_type": "cell-based", "details": "NRRL 28548, 24 h", "procedure": "as §1"}, "[15]": {"system": "Mucor circinelloides NRRL 3631", "assay_type": "cell-based", "details": "NRRL 3631, 24 h", "procedure": "as §1"}, "[16]": {"system": "S. epidermis ATCC 51625", "assay_type": "cell-based", "details": "ATCC 51625, 24 h", "procedure": "as §1"}, "[17]": {"system": "A. baumannii 6043", "assay_type": "cell-based, Acinetobacter baumannii", "details": "6043, 24 h", "procedure": "as §1"}, "[18]": {"system": "A. baumannii 6838", "assay_type": "cell-based, Acinetobacter baumannii", "details": "6838, 24 h", "procedure": "as §1"}, "[19]": {"system": "A. baumannii ATCC 17978", "assay_type": "cell-based, Acinetobacter baumannii", "details": "ATCC 17978, 24 h", "procedure": "as §1"}, "[20]": {"system": "K. pneumonia 6069", "assay_type": "cell-based, Klebsiella pneumoniae", "details": "24 h", "procedure": "as §1"}, "[21]": {"system": "K. pneumonia ATCC 10031", "assay_type": "cell-based, Klebsiella pneumoniae", "details": "ATCC 10031, 24 h", "procedure": "as §1"}, "[22]": {"system": "P. aeruginosa 6186", "assay_type": "cell-based, Pseudomonas aeruginosa", "details": "6186, 24 h", "procedure": "as §1"}, "[23]": {"system": "P. aeruginosa ATCC 19660", "assay_type": "cell-based, Pseudomonas aeruginosa", "details": "ATCC 19660, 24 h", "procedure": "as §1"}, "[24]": {"system": "P. aeruginosa ATCC 27853", "assay_type": "cell-based, Pseudomonas aeruginosa", "details": "ATCC 27853, 24 h", "procedure": "as §1"}, "[25]": {"system": "MRSA 6313", "assay_type": "cell-based, Staphylococcus aureus", "details": "6313, 24 h", "procedure": "as §1"}, "[26]": {"system": "MRSA 6381", "assay_type": "cell-based, Staphylococcus aureus", "details": "6381, 24 h", "procedure": "as §1"}, "[27]": {"system": "MRSA ATCC 33592", "assay_type": "cell-based, Staphylococcus aureus", "details": "ATCC 33592, 24 h", "procedure": "as §1"}, "[28]": {"system": "S. aureus 6061", "assay_type": "cell-based, Staphylococcus aureus", "details": "6061, 24 h", "procedure": "as §1"}, "[29]": {"system": "S. aureus B-767", "assay_type": "cell-based, Staphylococcus aureus", "details": "B-767, 24 h", "procedure": "as §1"}, "[30]": {"system": "P. aeruginosa 19660 (Xen5 luciferase)", "experiment": "Bioluminescent time-kill assay", "assay_type": "cell-based, Pseudomonas aeruginosa", "details": "8 μg/mL, 60 min, bioluminescence, triplicates from two independent experiments", "excerpt": "(§2) Fungal and bacterial strains were obtained from American Type Culture Collection (ATCC, Manassas, VA, USA) or the clinical isolate collection at Trideum Biosciences (Frederick, MD, USA) and are presented in Table 1 and Table 2, respectively. Bioluminescence strains of P. aeruginosa 19660, transfected with the Xen5 luciferase gene, and S. aureus ATCC R 49525TM (Wright), transfected with the Xen36 luciferase gene, were obtained from Perkin Elmer (Waltham, MA, USA).\n(§3) Real-time killing of bacterial cells, P. aeruginosa or S. aureus, and mammalian cytotoxicity to assess dAMP off-target toxicity was evaluated using bioluminescent cells. The L929 fibroblast cells (ATCC, Manassas, VA, USA) were made bioluminescent by transfection with a luciferase gene. Cells (1 × 10^4 cells, 100 μL) were plated in 96-well black-walled plates and the candidate dAMPs were 2-fold serially diluted from specified concentrations in growth medium supplemented with 150 μg/mL D-luciferin. Each concentration was performed in triplicate, with the final volume being 200 μL. Imaging was performed at select times after the addition of the dAMP, and compared to concurrently run vehicle-control, using an IVIS Lumina imaging system (Caliper Life Sciences, Inc., Hopkinton, MA, USA). For imaging, the 96-well plate was positioned on the stage (12.5-cm field of view), with an open emission filter, binning of 4, and f-stop 1 and a 1-min exposure time. Monitoring bioluminescence allows assessment of the kinetics of cellular viability as there is a tight correlation between the bioluminescent signal and cell viability. Data analysis was performed using the Living Image software program (version 4.3, Caliper Life Sciences, Inc., Hopkinton, MA, USA).\n(§4) Figure 3 RP553, RP556, RP557 rapidly destroy P. aeruginosa and S. aureus. The bioluminescence of viable P. aeruginosa 19,660 and S. aureus 49,525 cells was quantitated in real time with an IVIS Lumina bioimaging system. Data represent the mean ± SE of triplicate replicates from two independent experiments. For some points, the error bars are shorter than the height of the symbols."}, "[31]": {"system": "S. aureus 49525 (Xen36 luciferase)", "assay_type": "cell-based, Staphylococcus aureus", "details": "8 μg/mL, 60 min incubation, bioluminescence, triplicates from two independent experiments", "excerpt": "as §2, §3, §4"}, "[32]": {"system": "vulvovaginal candidiasis infection", "details": "rodent vulvovaginal candidiasis, after three days of daily treatment; cited from earlier work", "excerpt": "The dAMPs RP504, RP554 and RP557 were thus tested for their ability to treat a rodent vulvovaginal candidiasis infection. […] A daily dose with a 2% concentration lowered the CFU/sample by more than 4 logs compared to the con ..."}}, "note": "Bridge positions count the residues as written; N and C are the ends. Square brackets hold non-standard residues; d marks the D form. Peptide text beside a SMILES is read from it. Orn = NCCC[C@H](N)C(=O)O", "data": [{"molecule": "CC[C@H](C)[C@H](NC(=O)CNC(=O)CNC(=O)[C@@H]1CSSC[C@H](NC(=O)CNC(=O)CNC(=O)[C@H](CC(C)C)NC(=O)[C@H](CCCN)NC(=O)[C@H](C)NC(=O)[C@H](CCCN)NC(=O)[C@@H](NC(=O)[C@H](CCCN)NC(=O)[C@@H](N)Cc2ccccc2)[C@@H](C)CC)C(=O)N[C@@H](CC(C)C)C(=O)NCC(=O)N[C@@H](CCCN)C(=O)N[C@@H](Cc2ccccc2)C(=O)N1)C(=O)N[C@@H](CCCN)C(=O)N[C@@H](C)C(=O)N[C@@H](CCCN)C(=O)N[C@@H](CC(C)C)C(=O)N[C@@H](C)C(=O)N[C@@H](Cc1ccccc1)C(N)=O", "note": "[RP504] (H-F[Orn]I[Orn]A[Orn]LGGCLG[Orn]FCGGI[Orn]A[Orn]LAF-NH2; disulfide 10-15)", "values": [{"measurement": "MIC against Absidia corymbifera NRRL 6251", "setting": "[1]", "result": 8, "unit": "µg/mL"}, {"measurement": "MIC against Aspergillus flavus MYA-1004", "setting": "[2]", "result": ">128", "unit": "µg/mL"}, {"measurement": "MIC against Aspergillus flavus MYA-3651", "setting": "[3]", "result": ">128", "unit": "µg/mL"}, {"measurement": "MIC against Aspergillus fumigatus 9648", "setting": "[4]", "result": ">128", "unit": "µg/mL"}, {"measurement": "MIC against Aspergillus fumigatus 9651", "setting": "[5]", "result": ">128", "unit": "µg/mL"}, {"measurement": "MIC against Candida albicans Y-326", "setting": "[6]", "result": 8, "unit": "µg/mL"}, {"measurement": "MIC against Candida albicans Y-6359", "setting": "[7]", "result": 4, "unit": "µg/mL"}, {"measurement": "MIC against Candida krusei Y-27803", "setting": "[8]", "result": 8, "unit": "µg/mL"}, {"measurement": "MIC against Candida krusei Y-27825", "setting": "[9]", "result": 8, "unit": "µg/mL"}, {"measurement": "MIC against Candida parapsilosis Y-1761", "setting": "[10]", "result": 8, "unit": "µg/mL"}, {"measurement": "MIC against Candida parapsilosis Y-1763", "setting": "[11]", "result": 2, "unit": "µg/mL"}, {"measurement": "MIC against E. cloacae 6053", "setting": "[12]", "result": 32, "unit": "µg/mL"}, {"measurement": "MIC against E. cloacae 6054", "setting": "[13]", "result": 64, "unit": "µg/mL"}, {"measurement": "MIC against Fusarium solani NRRL 28548", "setting": "[14]", "result": 2, "unit": "µg/mL"}, {"measurement": "MIC against Mucor circinelloides NRRL 3631", "setting": "[15]", "result": ">128", "unit": "µg/mL"}, {"measurement": "MIC against S. epidermis ATCC 51625", "setting": "[16]", "result": 16, "unit": "µg/mL"}, {"measurement": "MIC against A. baumannii 6043", "setting": "[17]", "result": 32, "unit": "µg/mL"}, {"measurement": "MIC against A. baumannii 6838", "setting": "[18]", "result": 64, "unit": "µg/mL"}, {"measurement": "MIC against A. baumannii ATCC 17978", "setting": "[19]", "result": 32, "unit": "µg/mL"}, {"measurement": "MIC against K. pneumonia 6069", "setting": "[20]", "result": 32, "unit": "µg/mL"}, {"measurement": "MIC against K. pneumonia ATCC 10031", "setting": "[21]", "result": 32, "unit": "µg/mL"}, {"measurement": "MIC against P. aeruginosa 6186", "setting": "[22]", "result": 16, "unit": "µg/mL"}, {"measurement": "MIC against P. aeruginosa ATCC 19660", "setting": "[23]", "result": 16, "unit": "µg/mL"}, {"measurement": "MIC against P. aeruginosa ATCC 27853", "setting": "[24]", "result": 16, "unit": "µg/mL"}, {"measurement": "MIC against MRSA 6313", "setting": "[25]", "result": 64, "unit": "µg/mL"}, {"measurement": "MIC against MRSA 6381", "setting": "[26]", "result": 64, "unit": "µg/mL"}, {"measurement": "MIC against MRSA ATCC 33592", "setting": "[27]", "result": 32, "unit": "µg/mL"}, {"measurement": "MIC against S. aureus 6061", "setting": "[28]", "result": 64, "unit": "µg/mL"}, {"measurement": "MIC against S. aureus B-767", "setting": "[29]", "result": 32, "unit": "µg/mL"}, {"measurement": "P. aeruginosa destroyed", "setting": "[30]", "result": 25, "unit": "%"}, {"measurement": "S. aureus killing", "setting": "[31]", "result": 13, "unit": "%"}, {"measurement": "reduction of CFU/tissue sample", "setting": "[32]", "result": "≥ 2.5", "unit": "logs"}]}]}
